Reference: ChEMBL document CHEMBL2390858, “Design, synthesis and anti-tuberculosis activity of 1-adamantyl-3-heteroaryl ureas with improved in vitro pharmacokinetic properties” (Bioorg Med Chem, 2013)
≈ marks a conversion by molar mass, not a printed value.

Test system: Proteus vulgaris
Experiment: microbe, parasite or virus in culture
Conditions: not given

| SMILES | MIC [µg/mL] |
| --- | --- |
| Cc1cc(NC(=O)NC23CC4CC(CC(C4)C2)C3)on1 | > 200 |
| Cc1noc(NC(=O)NC23CC4CC(CC(C4)C2)C3)c1C#N | > 200 |
| Cc1onc(NC(=O)NC23CC4CC(CC(C4)C2)C3)c1Br | > 200 |
| O=C(Nc1ccncn1)NC12CC3CC(CC(C3)C1)C2 | > 200 |

Test system: Staphylococcus aureus
Experiment: microbe, parasite or virus in culture
Conditions: ATCC 29213

| SMILES | MIC [µg/mL] |
| --- | --- |
| Cc1cc(NC(=O)NC23CC4CC(CC(C4)C2)C3)on1 | 200 (≈ 726 µM) |
| Cc1noc(NC(=O)NC23CC4CC(CC(C4)C2)C3)c1C#N | > 200 |
| Cc1onc(NC(=O)NC23CC4CC(CC(C4)C2)C3)c1Br | 50 (≈ 141 µM) |
| O=C(Nc1ccncn1)NC12CC3CC(CC(C3)C1)C2 | 100 (≈ 367 µM) |

Test system: Enterococcus faecalis
Experiment: microbe, parasite or virus in culture
Conditions: not given

| SMILES | MIC [µg/mL] |
| --- | --- |
| Cc1cc(NC(=O)NC23CC4CC(CC(C4)C2)C3)on1 | 100 (≈ 363 µM) |
| Cc1noc(NC(=O)NC23CC4CC(CC(C4)C2)C3)c1C#N | 200 (≈ 666 µM) |
| O=C(Nc1ccncn1)NC12CC3CC(CC(C3)C1)C2 | > 200 |

Test system: not given
Experiment: not given
Conditions: buffer, 18 h, pH 7.4

| SMILES | solubility [µg/mL] |
| --- | --- |
| Cc1cc(NC(=O)NC23CC4CC(CC(C4)C2)C3)on1 | 5.5 (≈ 20 µM) |
| Cc1noc(NC(=O)NC23CC4CC(CC(C4)C2)C3)c1C#N | 1.2 (≈ 4 µM) |
| Cc1onc(NC(=O)NC23CC4CC(CC(C4)C2)C3)c1Br | 0.1 (≈ 0.282 µM) |
| O=C(Nc1ccncn1)NC12CC3CC(CC(C3)C1)C2 | 15.5 (≈ 56.9 µM) |

Test system: Staphylococcus aureus
Experiment: microbe, parasite or virus in culture
Conditions: NRS70

| SMILES | MIC [µg/mL] |
| --- | --- |
| Cc1cc(NC(=O)NC23CC4CC(CC(C4)C2)C3)on1 | > 200 |
| Cc1noc(NC(=O)NC23CC4CC(CC(C4)C2)C3)c1C#N | > 200 |
| Cc1onc(NC(=O)NC23CC4CC(CC(C4)C2)C3)c1Br | 200 (≈ 565 µM) |
| O=C(Nc1ccncn1)NC12CC3CC(CC(C3)C1)C2 | > 200 |

Test system: Bacillus subtilis
Experiment: microbe, parasite or virus in culture
Conditions: not given

| SMILES | MIC [µg/mL] |
| --- | --- |
| Cc1cc(NC(=O)NC23CC4CC(CC(C4)C2)C3)on1 | > 200 |
| Cc1noc(NC(=O)NC23CC4CC(CC(C4)C2)C3)c1C#N | > 200 |
| Cc1onc(NC(=O)NC23CC4CC(CC(C4)C2)C3)c1Br | > 200 |
| O=C(Nc1ccncn1)NC12CC3CC(CC(C3)C1)C2 | 50 (≈ 184 µM) |

Test system: Acinetobacter
Experiment: microbe, parasite or virus in culture
Conditions: not given

| SMILES | MIC [µg/mL] |
| --- | --- |
| Cc1cc(NC(=O)NC23CC4CC(CC(C4)C2)C3)on1 | > 200 |
| Cc1noc(NC(=O)NC23CC4CC(CC(C4)C2)C3)c1C#N | > 200 |
| Cc1onc(NC(=O)NC23CC4CC(CC(C4)C2)C3)c1Br | > 200 |
| O=C(Nc1ccncn1)NC12CC3CC(CC(C3)C1)C2 | > 200 |

Molecular target: T1, Bifunctional epoxide hydrolase 2 (Homo sapiens, UniProt P34913)
T1 sequence (P34913 whole entry): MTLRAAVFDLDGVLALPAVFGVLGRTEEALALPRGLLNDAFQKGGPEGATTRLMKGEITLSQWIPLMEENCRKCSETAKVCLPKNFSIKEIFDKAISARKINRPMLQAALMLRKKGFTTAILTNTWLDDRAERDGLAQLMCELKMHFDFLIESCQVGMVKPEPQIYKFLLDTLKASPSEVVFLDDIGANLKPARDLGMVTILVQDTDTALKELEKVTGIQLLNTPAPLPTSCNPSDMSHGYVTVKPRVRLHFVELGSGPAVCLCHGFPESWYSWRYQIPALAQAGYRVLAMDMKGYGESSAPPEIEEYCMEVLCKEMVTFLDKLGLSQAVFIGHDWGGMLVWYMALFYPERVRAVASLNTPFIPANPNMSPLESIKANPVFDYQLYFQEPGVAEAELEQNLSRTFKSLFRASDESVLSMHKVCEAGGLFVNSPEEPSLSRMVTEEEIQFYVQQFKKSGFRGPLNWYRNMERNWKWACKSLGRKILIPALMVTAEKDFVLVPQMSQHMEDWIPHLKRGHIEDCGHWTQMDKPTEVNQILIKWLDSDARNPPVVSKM
Experiment: not given
Conditions: not given

| SMILES | IC50 [nM] |
| --- | --- |
| Cc1cc(NC(=O)NC23CC4CC(CC(C4)C2)C3)on1 | 117 |
| Cc1noc(NC(=O)NC23CC4CC(CC(C4)C2)C3)c1C#N | 25 |
| Cc1onc(NC(=O)NC23CC4CC(CC(C4)C2)C3)c1Br | 0.8 |
| O=C(Nc1ccncn1)NC12CC3CC(CC(C3)C1)C2 | 775 |

Test system: Burkholderia cepacia
Experiment: microbe, parasite or virus in culture
Conditions: not given

| SMILES | MIC [µg/mL] |
| --- | --- |
| Cc1cc(NC(=O)NC23CC4CC(CC(C4)C2)C3)on1 | 100 (≈ 363 µM) |
| Cc1noc(NC(=O)NC23CC4CC(CC(C4)C2)C3)c1C#N | 200 (≈ 666 µM) |
| O=C(Nc1ccncn1)NC12CC3CC(CC(C3)C1)C2 | 200 (≈ 734 µM) |

Test system: Mycobacterium tuberculosis
Experiment: microbe, parasite or virus in culture
Conditions: H37Rv, 168 h

| SMILES | MIC [µg/mL] |
| --- | --- |
| Cc1cc(NC(=O)NC23CC4CC(CC(C4)C2)C3)on1 | 12.5 (≈ 45.4 µM) |
| Cc1noc(NC(=O)NC23CC4CC(CC(C4)C2)C3)c1C#N | 100 (≈ 333 µM) |
| Cc1onc(NC(=O)NC23CC4CC(CC(C4)C2)C3)c1Br | 100 (≈ 282 µM) |
| O=C(Nc1ccncn1)NC12CC3CC(CC(C3)C1)C2 | 25 (≈ 91.8 µM) |

Test system: Streptococcus pneumoniae
Experiment: microbe, parasite or virus in culture
Conditions: not given

| SMILES | MIC [µg/mL] |
| --- | --- |
| Cc1cc(NC(=O)NC23CC4CC(CC(C4)C2)C3)on1 | > 200 |
| Cc1noc(NC(=O)NC23CC4CC(CC(C4)C2)C3)c1C#N | > 200 |
| Cc1onc(NC(=O)NC23CC4CC(CC(C4)C2)C3)c1Br | > 200 |
| O=C(Nc1ccncn1)NC12CC3CC(CC(C3)C1)C2 | 50 (≈ 184 µM) |

Test system: Proteus mirabilis
Experiment: microbe, parasite or virus in culture
Conditions: not given

| SMILES | MIC [µg/mL] |
| --- | --- |
| Cc1cc(NC(=O)NC23CC4CC(CC(C4)C2)C3)on1 | > 200 |
| Cc1noc(NC(=O)NC23CC4CC(CC(C4)C2)C3)c1C#N | > 200 |
| Cc1onc(NC(=O)NC23CC4CC(CC(C4)C2)C3)c1Br | > 200 |
| O=C(Nc1ccncn1)NC12CC3CC(CC(C3)C1)C2 | > 200 |

Test system: Pseudomonas aeruginosa
Experiment: microbe, parasite or virus in culture
Conditions: not given

| SMILES | MIC [µg/mL] |
| --- | --- |
| Cc1cc(NC(=O)NC23CC4CC(CC(C4)C2)C3)on1 | > 200 |
| Cc1noc(NC(=O)NC23CC4CC(CC(C4)C2)C3)c1C#N | > 200 |
| Cc1onc(NC(=O)NC23CC4CC(CC(C4)C2)C3)c1Br | > 200 |
| O=C(Nc1ccncn1)NC12CC3CC(CC(C3)C1)C2 | > 200 |

Test system: Streptococcus pyogenes
Experiment: microbe, parasite or virus in culture
Conditions: not given

| SMILES | MIC [µg/mL] |
| --- | --- |
| Cc1cc(NC(=O)NC23CC4CC(CC(C4)C2)C3)on1 | > 200 |
| Cc1noc(NC(=O)NC23CC4CC(CC(C4)C2)C3)c1C#N | > 200 |
| Cc1onc(NC(=O)NC23CC4CC(CC(C4)C2)C3)c1Br | > 200 |
| O=C(Nc1ccncn1)NC12CC3CC(CC(C3)C1)C2 | > 200 |

Test system: Bacillus anthracis
Experiment: microbe, parasite or virus in culture
Conditions: Sterne

| SMILES | MIC [µg/mL] |
| --- | --- |
| Cc1cc(NC(=O)NC23CC4CC(CC(C4)C2)C3)on1 | > 200 |
| Cc1noc(NC(=O)NC23CC4CC(CC(C4)C2)C3)c1C#N | > 200 |
| Cc1onc(NC(=O)NC23CC4CC(CC(C4)C2)C3)c1Br | > 200 |
| O=C(Nc1ccncn1)NC12CC3CC(CC(C3)C1)C2 | > 200 |

Test system: Klebsiella pneumoniae
Experiment: microbe, parasite or virus in culture
Conditions: not given

| SMILES | MIC [µg/mL] |
| --- | --- |
| Cc1cc(NC(=O)NC23CC4CC(CC(C4)C2)C3)on1 | > 200 |
| Cc1noc(NC(=O)NC23CC4CC(CC(C4)C2)C3)c1C#N | > 200 |
| Cc1onc(NC(=O)NC23CC4CC(CC(C4)C2)C3)c1Br | > 200 |
| O=C(Nc1ccncn1)NC12CC3CC(CC(C3)C1)C2 | > 200 |

Test system: Escherichia coli
Experiment: microbe, parasite or virus in culture
Conditions: K-12

| SMILES | MIC [µg/mL] |
| --- | --- |
| Cc1cc(NC(=O)NC23CC4CC(CC(C4)C2)C3)on1 | 200 (≈ 726 µM) |
| Cc1noc(NC(=O)NC23CC4CC(CC(C4)C2)C3)c1C#N | > 200 |
| Cc1onc(NC(=O)NC23CC4CC(CC(C4)C2)C3)c1Br | 50 (≈ 141 µM) |
| O=C(Nc1ccncn1)NC12CC3CC(CC(C3)C1)C2 | > 200 |
